One experiment relates to Respiratory Syncytial Virus. In words: In vitro screening for activity against RSV (tetrazolium-based colorimetric assay, protection against viral cytopathology). The experiment is classed as cell-based. The following applies: Table 1; RSV in HeLa cells, MTT, seven days after infection; pEC50 = -log of EC50 in molar units. The source says: The percent protection against cytopathology caused by viruses (antiviral activity or EC50) achieved by tested compounds and their cytotoxicity (CC50) are both calculated from dose-response curves. The selectivity of the antiviral effect is represented by the selectivity index (SI), calculated by dividing the CC50 (cytotoxic dose for 50% of the cells) by the EC50 (antiviral activity for 50% of the cells). The tables in the above experimental part list the category to which each of the prepared compounds belong: Compounds belonging to activity category “A” have a pEC50 (−log of EC50 when expressed in molar units) equal to or more than 7. Compounds belonging to activity category “B” have a pEC50 value between 6 and 7.
Automated tetrazolium-based colorimetric assays were used for determination of EC50 and CC50 of test compounds. Flat-bottom, 96-well plastic microtiter trays were filled with 180 μl of Eagle's Basal Medium, supplemented with 5% FCS (0% for FLU) and 20 mM Hepes buffer. Subsequently, stock solutions (7.8× final test concentration) of compounds were added in 45 μl volumes to a series of triplicate wells so as to allow simultaneous evaluation of their effects on virus- and mock-infected cells. Five five-fold dilutions were made directly in the microtiter trays using a robot system. Untreated virus controls, and HeLa cell controls were included in each test. Approximately 100 TCID50 of Respiratory Syncytial Virus was added to two of the three rows in a volume of 50 μl. The same volume of medium was added to the third row to measure the cytotoxicity of the compounds at the same concentrations as those used to measure the antiviral activity. After two hours of incubation, a suspension (4×10^5 cells/ml) of HeLa cells was added to all wells in a volume of 50 μl. The cultures were incubated at 37° C. in a 5% CO2 atmosphere. Seven days after infection the cytotoxicity and the antiviral activity was examined spectrophotometrically. To each well of the microtiter tray, 25 μl of a solution of MTT (3-(4,5-dimethylthiazol-2-yl)-2,5-diphenyltetrazolium bromide) was added. The trays were further incubated at 37° C. for 2 hours, after which the medium was removed from each cup. Solubilization of the formazan crystals was achieved by adding 100 μl 2-propanol. Complete dissolution of the formazan crystals were obtained after the trays have been placed on a plate shaker for 10 min. Finally, the absorbances were read in an eight-channel computer-controlled photometer (Multiskan MCC, Flow Laboratories) at two wavelengths (540 and 690 nm). The absorbance measured at 690 nm was automatically subtracted from the absorbance at 540 nm, so as to eliminate the effects of non-specific absorption.
The percent protection against cytopathology caused by viruses (antiviral activity or EC50) achieved by tested compounds and their cytotoxicity (CC50) were both calculated from dose-response curves. The selectivity of the antiviral effect is represented by the selectivity index (SI), calculated by dividing the CC50 (cytotoxic dose for 50% of the cells) by the EC50 (antiviral activity for 50% of the cells).
`COc1ccc(NCc2ccc3nc(N)n(Cc4nc(C)ccc4O)c3c2)cc1OC` [Compound 61] yielded an Activity of 7.3. The same measure, in the same setting: for `Cc1ccc(O)c(Cn2c(N)nc3ccc(CNc4ccc(Br)c(C(F)(F)F)c4)cc32)n1` [Compound 62] the value was 7.3; for `Cc1ccc(O)c(Cn2c(N)nc3ccc(CNc4ccc(Br)c(F)c4)cc32)n1` [Compound 63], 7.3.

`COC(=O)c1cc(NCc2ccc3nc(N)n(Cc4nc(C)ccc4O)c3c2)cc(C(=O)OC)c1` [Compound 64] yielded an Activity of 7.3.

`Cc1ccc(NCc2ccc3nc(N)n(Cc4nc(C)ccc4O)c3c2)cc1` [Compound 67] returned an Activity of 7.3.

`CCOC(=O)c1ccccc1NCc1ccc2nc(N)n(Cc3nc(C)ccc3O)c2c1` [Compound 68] displayed an Activity of 7.2. Same read-out and setting: then `CC(=O)c1ccccc1NCc1ccc2nc(N)n(Cc3nc(C)ccc3O)c2c1` [Compound 69], with 7.2; and `Cc1ccc(O)c(Cn2c(N)nc3ccc(CNc4ccccc4C(C)(C)C)cc32)n1` [Compound 70], with 7.2. Compound `Cc1ccc(O)c(Cn2c(N)nc3ccc(CNc4cccc(Oc5ccccc5)c4)cc32)n1` [Compound 71] displayed an Activity of 7.1. On the same count and under the same terms, for `Cc1ccc(O)c(Cn2c(N)nc3ccc(CNc4cc(Cl)c(O)c(Cl)c4)cc32)n1` [Compound 72] the value was 7.1; for `Cc1ccc(O)c(Cn2c(N)nc3ccc(CNc4cc(C(F)(F)F)cc(C(F)(F)F)c4)cc32)n1` [Compound 74], 7.1; for `COc1ccc(NCc2ccc3nc(N)n(Cc4nc(C)ccc4O)c3c2)cc1O` [Compound 75], 7.

`Cc1ccc(O)c(Cn2c(N)nc3ccc(CNc4cc(C(C)(C)C)cc(C(C)(C)C)c4)cc32)n1` [Compound 76] registered an Activity of 6.8. Same read-out and setting: then `Cc1ccc(O)c(Cn2c(N)nc3ccc(CNc4cccc(OCc5ccccc5)c4)cc32)n1` [Compound 77], with 6.8. Regarding `Cc1ccc(O)c(Cn2c(N)nc3ccc(CNc4cc(C(=O)O)cc(C(F)(F)F)c4)cc32)n1` [Compound 78], the Activity is recorded as 6.6. `Cc1ccc(O)c(Cn2c(N)nc3ccc(CNc4cccc(Cc5ccccc5)c4)cc32)n1` [Compound 79] came in with an Activity of 6.4. `Cc1ccc(O)c(Cn2c(N)nc3ccc(CNc4cc(OCC(F)(F)F)cc(OCC(F)(F)F)c4)cc32)n1` [Compound 80] gave an Activity of 6.2. Compound `Cc1ccc(O)c(Cn2c(N)nc3ccc(CNc4ccccc4CCO)cc32)n1` [Compound 81] came in with an Activity of 9.4.

As to `Cc1ccc(O)c(Cn2c(N)nc3ccc(CNc4cccc(C)c4CCO)cc32)n1` [Compound 84], the Activity amounted to 9. With `Cc1ccc(O)c(Cn2c(N)nc3ccc(CNc4ccc(C(N)=O)cc4)cc32)n1` [Compound 85], the Activity came to 8.4. `Cc1ccc(O)c(Cn2c(N)nc3ccc(CNc4cccc(C)c4CO)cc32)n1` [Compound 87] registered an Activity of 8.2.

Take `Cc1ccc(O)c(Cn2c(N)nc3ccc(CNc4cc(C#N)ccc4CCO)cc32)n1` [Compound 89]: the Activity is given as 10.6. For the compound `Cc1ccc(OCCO)c(NCc2ccc3nc(N)n(Cc4nc(C)ccc4O)c3c2)c1` [Compound 91], the Activity is on record as 10.5.

`C#Cc1ccc(CCO)c(NCc2ccc3nc(N)n(Cc4nc(C)ccc4O)c3c2)c1` [Compound 92] yielded an Activity of 10.4.

Staying with this experiment, now noted: Table 2; RSV in HeLa cells, MTT, seven days after infection; pEC50 = -log of EC50 in molar units.
`Cc1ccc(O)c(Cn2c(N)nc3cc(CNc4ccccc4)ccc32)n1` [Compound 116] displayed an Activity of 7.0. In turn, `Cc1cc(C)cc(NCc2ccc3c(c2)nc(N)n3Cc2nc(C)ccc2O)c1` [Compound 117] gave an Activity of 6.8. On the same count and under the same terms, then `CC(=O)c1cccc(NCc2ccc3c(c2)nc(N)n3Cc2nc(C)ccc2O)c1` [Compound 118], with 6.4; and `Cc1ccc(O)c(Cn2c(N)nc3cc(CNc4cccc(C)c4C)ccc32)n1` [Compound 119], with 6.4. In turn, `Cc1cccc(NCc2ccc3c(c2)nc(N)n3Cc2nc(C)ccc2O)c1` [Compound 120] had an Activity of 6.4. `Cc1ccc(O)c(Cn2c(N)nc3cc(CNc4cc(Cl)cc(Cl)c4)ccc32)n1` [Compound 121] had an Activity of 5.8. Turning to `Cc1ccc(O)c(Cn2c(N)nc3cc(CNc4cccc(Cl)c4)ccc32)n1` [Compound 122], the Activity was <4.0. For `Cc1ccc(O)c(Cn2c(N)nc3cc(CNc4cccc5cccnc45)ccc32)n1` [Compound 123], the Activity is recorded as <4.0.

Regarding `Cc1ccc(O)c(Cn2c(N)nc3cc(CNc4cccc(F)c4)ccc32)n1` [Compound 124], the Activity is recorded as <4.0. Consider `CCc1cccc(NCc2ccc3c(c2)nc(N)n3Cc2nc(C)ccc2O)c1` [Compound 125], for which the Activity is recorded as <4.0. In the case of `Cc1ccc(O)c(Cn2c(N)nc3cc(CNc4cccc(Br)c4)ccc32)n1` [Compound 126], the Activity is listed as <4.0.

With `C#Cc1cccc(NCc2ccc3c(c2)nc(N)n3Cc2nc(C)ccc2O)c1` [Compound 127], the Activity is given as <4.0.

Staying with this experiment, now noted: Table 3; RSV in HeLa cells, MTT, seven days after infection; pEC50 = -log of EC50 in molar units.
Consider `Cc1ccc(O)c(Cn2c(N)nc3ccc(CN(Cc4ccccc4)c4ccccc4)cc32)n1` [Compound 133], for which the Activity was 7.5.

`Cc1ccc(O)c(Cn2c(N)nc3ccc(CN(C)c4ccccc4CCO)cc32)n1` [Compound 166] came in with an Activity of 6.8.

The compound `Cc1ccc(O)c(Cn2c(N)nc3ccc(CN(CCC(N)=O)c4cc(Cl)cc(Cl)c4)cc32)n1` [Compound 167] registered an Activity of 9.4. The compound `Cc1cccc(N(CCCS(N)(=O)=O)Cc2ccc3nc(N)n(Cc4nc(C)ccc4O)c3c2)c1` [Compound 168] returned an Activity of 9.3. The same measure, in the same setting: then `Cc1cccc(N(CCOCCO)Cc2ccc3nc(N)n(Cc4nc(C)ccc4O)c3c2)c1.Cl` [Compound 171], with 8.9; and `CNC(=O)CCN(Cc1ccc2nc(N)n(Cc3nc(C)ccc3O)c2c1)c1cccc(C)c1.Cl` [Compound 172], with 8.8; and `Cc1ccc(O)c(Cn2c(N)nc3ccc(CN(CCO)c4cnc5ccccc5c4)cc32)n1` [Compound 175], with 8.5. `Cc1cccc(N(Cc2ccc3nc(N)n(Cc4nc(C)ccc4O)c3c2)Cc2c[nH]cn2)c1` [Compound 176] displayed an Activity of 8.3.

`Cc1cccc(N(Cc2ccc3nc(N)n(Cc4nc(C)ccc4O)c3c2)CC(O)CO)c1` (stereo not shown) [Compound 180] came in with an Activity of 9.3.

The experiment is the same for the next values; noted with them: Table 4; RSV in HeLa cells, MTT, seven days after infection; pEC50 = -log of EC50 in molar units.
`Cc1cc(C)cc(NCc2ccc3ncn(Cc4nc(C)ccc4O)c3c2)c1` [Compound 184] registered an Activity of 6.7. Still for that read-out and setting: then `Cc1ccc(O)c(Cn2cnc3ccc(CNc4cc(Cl)cc(Cl)c4)cc32)n1` [Compound 185], with 6.1. Regarding `CCc1cccc(NCc2ccc3ncn(Cc4nc(C)ccc4O)c3c2)c1` [Compound 187], the Activity is 5.7. Compound `Cc1ccc(O)c(Cn2cnc3ccc(/C=C/C#N)cc32)n1` [Compound 189] gave an Activity of 4.8.

On to `Cc1ccc(O)c(Cn2cnc3ccc(NC(=O)c4ccccc4)cc32)n1` [Compound 190], for which the Activity was <4.0.

Compound `Cc1ccc(CCCO)c(NCc2ccc3ncn(Cc4nc(C)ccc4O)c3c2)c1` [Compound 191] had an Activity of 7.9.

`Cc1ccc(CCO)c(NCc2ccc3ncn(Cc4nc(C)ccc4O)c3c2)c1` [Compound 192]: the Activity is reported as 7.8.

Turning to `Cc1cccc(N(CCO)Cc2ccc3ncn(Cc4nc(C)ccc4O)c3c2)c1` [Compound 193], the Activity stood at 6.3.

Staying with this experiment, now noted: Table 5a; RSV in HeLa cells, MTT, seven days after infection; pEC50 = -log of EC50 in molar units.
For the compound `Cc1ccc(O)c(Cn2c(N)nc3ccc(CCCN)cc32)n1.Cl` [Compound 196], the Activity is given as 7.7.

Still in this experiment, the particulars now being: human respiratory syncytial virus, 168 h; Table 4; RSV in HeLa cells, MTT, seven days after infection; pEC50 = -log of EC50 in molar units; read-out: Activity (converted).
Regarding `Cc1ccc(O)c(Cn2cnc3ccc(CNc4cccc(Cl)c4)cc32)n1` [Compound 186, 2-{6-[(3-chloro-phenylamino)-methyl]-benzoimidazol-1-ylmethyl}-6-methyl-pyridin-3-ol], the EC50 is 1.58 µM.

The values above are taken from patent US8044073B2, “Aminobenzimidazoles and benzimidazoles as inhibitors of respiratory syncytial virus replication” (Tibotec Pharmaceuticals, priority 2003, dated 2011).
